Test results published in patent US10508077B2 (FORMA Therapeutics, Inc., priority 2015, dated 2019).

Biological target: T1, Full length human recombinant HDAC8 protein (Homo sapiens, UniProt Q9BY41)
T1 construct: Full length human recombinant HDAC8 protein was expressed in baculoviral system; made in house
T1 sequence (Q9BY41 1-377): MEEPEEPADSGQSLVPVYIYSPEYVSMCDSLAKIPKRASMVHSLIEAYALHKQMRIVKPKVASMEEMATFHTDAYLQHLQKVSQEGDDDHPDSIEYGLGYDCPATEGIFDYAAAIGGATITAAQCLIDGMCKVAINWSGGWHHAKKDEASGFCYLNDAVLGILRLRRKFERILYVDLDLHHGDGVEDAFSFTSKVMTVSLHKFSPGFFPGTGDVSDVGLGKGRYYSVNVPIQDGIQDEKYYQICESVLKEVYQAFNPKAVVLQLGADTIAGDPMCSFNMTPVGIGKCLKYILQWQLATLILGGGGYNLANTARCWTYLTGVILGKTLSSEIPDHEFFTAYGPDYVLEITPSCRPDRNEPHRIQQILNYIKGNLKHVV
Experiment: In vitro histone deacetylase assay: enzymatic HDAC8 assay, electrophoretic mobility shift
Type: biochemical
Conditions: substrate RHKK(Ac)-NH2, 1 nM enzyme, compounds listed under IC50 range headings
How it was run: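 Baculovirus-expressed full-length human HDAC8 (1 nM) deacetylated 2 µM fluorescent RHKK(Ac)-NH2 peptide in pH 7.5 HEPES, 1% DMSO, at 25 °C, with 12 compound concentrations at 3× spacing. SDS-quenched; product and substrate resolved by microfluidic electrophoresis, P/(S+P) converted to percent inhibition, and IC50 obtained by 4-parameter fit.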

IC50 [nM]	Structure (SMILES)
< 1000	O=C(/C=C/c1ccccc1N1CCN(Cc2ccccc2OC(F)F)CC1)NO [Example I-176, (E)-3-(2-(4-(2-(difluoromethoxy)benzyl)piperazin-1-yl)phenyl)-N-hydroxyacrylamide]
< 1000	Cc1csc(CN2CCN(c3ccccc3/C=C/C(=O)NO)CC2)n1 [Example I-185, (E)-N-hydroxy-3-(2-(4-((4-methylthiazol-2-yl)methyl)piperazin-1-yl)phenyl)acrylamide]
< 1000	CN1CCC(C)(CN2CCN(c3ccccc3/C=C/C(=O)NO)CC2)CC1 [Example I-187, (E)-3-(2-(4-((1,4-dimethylpiperidin-4-yl)methyl)piperazin-1-yl)phenyl)-N-hydroxyacrylamide]
< 1000	O=C(/C=C/c1ccccc1N1CCN(Cc2nc3ccccc3s2)CC1)NO [Example I-189, (E)-3-(2-(4-(benzo[d]thiazol-2-ylmethyl)piperazin-1-yl)phenyl)-N-hydroxyacrylamide]
< 1000	O=C(/C=C/c1ccccc1N1CCC(NCc2nccs2)CC1)NO [Example I-190, (E)-N-hydroxy-3-(2-(4-((thiazol-2-ylmethyl)amino)piperidin-1-yl)phenyl)acrylamide]
< 1000	CSCC(=O)N1CCN(c2ccccc2/C=C/C(=O)NO)CC1 [Example I-194, (E)-N-hydroxy-3-(2-(4-(2-(methylthio)acetyl)piper-azin-1-yl)phenyl)acrylamide]
< 1000	COc1ccc(CC(=O)N2CCN(c3ccccc3/C=C/C(=O)NO)CC2)cc1 [Example I-195, (E)-N-hydroxy-3-(2-(4-(2-(4-methoxyphenyl)acetyl)pi-perazin-1-yl)phenyl)acrylamide]
< 1000	CCSCC(=O)N1CCN(c2ccccc2/C=C/C(=O)NO)CC1 [Example I-197, (E)-3-(2-(4-(2-(ethylthio)acetyl)pipera-zin-1-yl)phenyl)-N-hydroxyacrylamide]
< 1000	Cc1cc(C(=O)N2CCN(c3ccccc3/C=C/C(=O)NO)CC2)n[nH]1 [Example I-198, (E)-N-hydroxy-3-(2-(4-(5-methyl-1H-pyrazole-3-carbonyl)piperazin-1-yl)phenyl)acrylamide]
< 1000	Cn1cncc1C(=O)N1CCN(c2ccccc2/C=C/C(=O)NO)CC1 [Example I-199, (E)-N-hydroxy-3-(2-(4-(1-methyl-1H-imidazole-5-carbonyl)piperazin-1-yl)phenyl)acrylamide]
< 1000	CN1CCCC(C(=O)N2CCN(c3ccccc3/C=C/C(=O)NO)CC2)C1 (stereo not drawn) [Example I-209, (E)-N-hydroxy-3-(2-(4-(1-methylpiperidine-3-carbonyl)piperazin-1-yl)phenyl)acrylamide]
< 1000	O=C(/C=C/c1ccccc1N1CCN(C(=O)c2ccc(OC(F)F)cc2)CC1)NO [Example I-212, (E)-3-(2-(4-(4-(difluoromethoxy)benzoyl)piperazin-1-yl)phenyl)-N-hydroxyacrylamide]
< 1000	CC(C)N(Cc1cccc(C(F)(F)F)c1)c1ccccc1/C=C/C(=O)NO [Example I-216, (E)-N-hydroxy-3-(2-(isopropyl(3-(trifluoromethyl)benzyl)amino)phenyl)acrylamide]
< 1000	O=C(/C=C/c1cccnc1CNc1ccc(-c2ccccc2)c(C(F)(F)F)c1)NO [Example I-217, (E)-N-hydroxy-3-(2-(((2-(trifluoromethyl)-[1,1′-biphenyl]-4-yl)amino)methyl)pyridin-3-yl)acrylamide]

The remaining lines, values behind:

Structure (SMILES)	IC50 [nM]
O=C(/C=C/c1ccccc1N1CCN(Cc2ccccc2C(F)(F)F)CC1)NO [Example I-174, (E)-N-hydroxy-3-(2-(4-(2-(trifluoromethyl)benzyl)piperazin-1-yl)phenyl)acrylamide]	< 1000
O=C(/C=C/c1ccccc1N1CCN(Cc2cc3c(cc2Cl)OCO3)CC1)NO [Example I-175, (E)-3-(2-(4-((6-chlorobenzo[d][1,3]dioxol-5-yl)methyl)piperazin-1-yl)phenyl)-N-hydroxyacrylamide]	< 1000
CCCCN1CCN(c2ccccc2/C=C/C(=O)NO)CC1 [Example I-177, (E)-3-(2-(4-butylpiperazin-1-yl)phenyl)-N-hydroxyacrylamide]	< 1000
CCCCCCN1CCN(c2ccccc2/C=C/C(=O)NO)CC1 [Example I-178, (E)-3-(2-(4-hexylpiperazin-1-yl)phenyl)-N-hydroxyacrylamide]	< 1000
Cn1ccnc1CN1CCN(c2ccccc2/C=C/C(=O)NO)CC1 [Example I-181, (E)-N-hydroxy-3-(2-(4-((1-methyl-1H-imidazol-2-yl)methyl)piperazin-1-yl)phenyl)acrylamide]	< 1000
O=C(/C=C/c1ccccc1N1CCN(CCCC(F)(F)F)CC1)NO [Example I-184, (E)-N-hydroxy-3-(2-(4-(4,4,4-trifluorobutyl)piperazin-1-yl)phenyl)acrylamide]	< 1000
CN(C)CC1(CN2CCN(c3ccccc3/C=C/C(=O)NO)CC2)CCCC1 [Example I-186, (E)-3-(2-(4-((1-((dimethylamino)methyl)cyclopentyl)methyl)piperazin-1-yl)phenyl)-N-hydroxyacrylamide]	< 1000
O=C(/C=C/c1ccccc1N1CCN(Cc2cn3ccccc3n2)CC1)NO [Example I-188, (E)-N-hydroxy-3-(2-(4-(imidazo[1,2-a]pyridin-2-ylmethyl)piperazin-1-yl)phenyl)acrylamide]	< 1000
O=C(/C=C/c1ccccc1N1CCC(NCc2ccccc2OC(F)F)CC1)NO [Example I-191, (E)-3-(2-(4-((2-(difluoromethoxy)benzyl)amino)piperidin-1-yl)phenyl)-N-hydroxyacrylamide]	< 1000
O=C(/C=C/c1ccccc1N1CCC(NCc2nc3ccccc3s2)CC1)NO [Example I-192, (E)-3-(2-(4-((benzo[d]thiazol-2-ylmethyl)amino)piperidin-1-yl)phenyl)-N-hydroxyacrylamide]	< 1000
CC(=O)N1CCN(c2ccccc2/C=C/C(=O)NO)CC1 [Example I-193, (E)-3-(2-(4-actylpiperazin-1-yl)phenyl)-N-hydroxyacrylamide]	< 1000
O=C(/C=C/c1ccccc1N1CCN(C(=O)Cc2cccs2)CC1)NO [Example I-196, (E)-N-hydroxy-3-(2-(4-(2-(thiophen-2-yl)acetyl)piperazin-1-yl)phenyl)acrylamide]	< 1000
CS(=O)(=O)CCCC(=O)N1CCN(c2ccccc2/C=C/C(=O)NO)CC1 [Example I-201, (E)-N-hydroxy-3-(2-(4-(4-(methylsulfonyl)butanoyl)piperazin-1-yl)phenyl)acrylamide]	< 1000
O=C(/C=C/c1ccccc1N1CCN(C(=O)c2ccc(F)cn2)CC1)NO [Example I-202, (E)-3-(2-(4-(5-fluoropicolinoyl)piperazin-1-yl)phenyl)-N-hydroxyacrylamide]	< 1000
COc1cc(CC(=O)N2CCN(c3ccccc3/C=C/C(=O)NO)CC2)ccc1O [Example I-203, (E)-N-hydroxy-3-(2-(4-(2-(4-hydroxy-3-methoxyphenyl)acetyl)piperazin-1-yl)phenyl)acrylamide]	< 1000
O=C(/C=C/c1ccccc1N1CCN(C(=O)C2CC(F)(F)C2)CC1)NO [Example I-205, (E)-3-(2-(4-(3,3-difluorocyclobutane-1-carbonyl)piperazin-1-yl)phenyl)-N-hydroxyacrylamide]	< 1000
O=C(/C=C/c1ccccc1N1CCN(C(=O)c2ccc3c(c2)OCO3)CC1)NO [Example I-207, (E)-3-(2-(4-(benzo[d][1,3]dioxole-5-carbonyl)piperazin-1-yl)phenyl)-N-hydroxyacrylamide]	< 1000
O=C(/C=C/c1ccccc1N1CCN(C(=O)Cc2ccc(Cl)cc2)CC1)NO [Example I-210, (E)-3-(2-(4-(2-(4-chlorophenyl)acetyl)piper-azin-1-yl)phenyl)-N-hydroxyacrylamide]	< 1000
Cc1nc(CC(=O)N2CCN(c3ccccc3/C=C/C(=O)NO)CC2)c(C)s1 [Example I-211]	< 1000
COc1ccc(C(=O)N2CCN(c3ccccc3/C=C/C(=O)NO)CC2)cc1F [Example I-213]	< 1000
Cc1oc(-c2ccc(Cl)cc2)cc1C(=O)N1CCN(c2ccccc2/C=C/C(=O)NO)CC1 [Example I-214, (E)-3-(2-(4-(5-(4-chlorophenyl)-2-methylfuran-3-carbonyl)piperazin-1-yl)phenyl)-N-hydroxyacrylamide]	< 1000
O=C(/C=C/c1ccccc1N1CCN(C(=O)c2ccc3[nH]nnc3c2)CC1)NO [Example I-215, (E)-3-(2-(4-(1H-benzo[d][1,2,3]triazole-5-carbonyl)piperazin-1-yl)phenyl)-N-hydroxyacrylamide]	< 1000
Cc1nn(C)c(Cl)c1S(=O)(=O)NC1CCN(c2ccccc2/C=C/C(=O)NO)CC1 [Example I-218, (E)-3-(2-(4-((5-chloro-1,3-dimethyl-1H-pyrazole)-4-sulfonamido)piperidin-1-yl)phenyl)-N-hydroxyacrylamide]	< 1000
Cc1noc(C)c1S(=O)(=O)NC1CCN(c2ccccc2/C=C/C(=O)NO)CC1 [Example I-220, (E)-3-(2-(4-((3,5-dimethylisoxazole)-4-sulfonamido)piperidin-1-yl)phenyl)-N-hydroxyacrylamide]	< 1000
O=C(/C=C/c1ccccc1N1CCC(NS(=O)(=O)c2cccnc2)CC1)NO [Example I-221, (E)-N-hydroxy-3-(2-(4-(pyridine-3-sulfonamido)piperidin-1-yl)phenyl)acrylamide]	< 1000
